From PubChem BioAssay (NCI)
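The compound was tested at five concentrations on cells cultured in 96-well plates, with a 48-hour exposure period. GI50 is the concentration that inhibits growth by half. At the TGI there is no net growth.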

Tests used:
Assay in all cases: NCI-60 cell line screen, 48 h
[1] = test system: SF-268 CNS
[2] = test system: CAKI-1 renal
[3] = test system: SK-MEL-2 melanoma
[4] = test system: SF-295 CNS
[5] = test system: UACC-62 melanoma
[6] = test system: UO-31 renal
[7] = test system: 786-0 renal
[8] = test system: MCF7 breast
[9] = test system: MOLT-4 leukemia
[10] = test system: MALME-3M melanoma
[11] = test system: SN12C renal
[12] = test system: HL-60(TB) leukemia
[13] = test system: A549 NSCLC
[14] = test system: HCT-116 colon
[15] = test system: TK-10 renal
[16] = test system: M14 melanoma
[17] = test system: RPMI-8226 leukemia
[18] = test system: MDA-MB-468 breast
[19] = test system: OVCAR-3 ovarian
[20] = test system: HT29 colon
[21] = test system: K-562 leukemia
[22] = test system: PC-3 prostate
[23] = test system: HS 578T breast
[24] = test system: COLO 205 colon
[25] = test system: NCI-H226 lung
[26] = test system: NCI-H23 lung
[27] = test system: OVCAR-8 ovarian
[28] = test system: SK-OV-3 ovarian
[29] = test system: IGROV1 ovarian
[30] = test system: SNB-19 CNS
[31] = test system: EKVX NSCLC
[32] = test system: NCI-H460 lung
[33] = test system: DU-145 prostate
[34] = test system: NCI/ADR-RES ovarian
[35] = test system: CCRF-CEM leukemia
[36] = test system: SR leukemia
[37] = test system: SW-620 colon
[38] = test system: SF-539 CNS
[39] = test system: RXF 393 renal
[40] = test system: NCI-H522 lung
[41] = test system: LOX IMVI melanoma
[42] = test system: BT-549 breast
[43] = test system: HCC-2998 colon
[44] = test system: U251 CNS
[45] = test system: HOP-62 NSCLC
[46] = test system: OVCAR-4 ovarian
[47] = test system: A498 renal
[48] = test system: OVCAR-5 ovarian
[49] = test system: HOP-92 NSCLC
[50] = test system: SK-MEL-5 melanoma
[51] = test system: MDA-MB-435
[52] = test system: UACC-257 melanoma
[53] = test system: HCT-15 colon
[54] = test system: KM12 colon
[55] = test system: MDA-MB-231 breast
[56] = test system: ACHN renal
[57] = test system: T-47D breast
[58] = test system: SK-MEL-28 melanoma
[59] = test system: SNB-75 CNS

SMILES: COc1ccc(C(=O)/C=C/c2cccc(Cl)c2Cl)cc1S(N)(=O)=O
- GI50 [1]: 3.45 µM
- TGI [1]: 14.5 µM
- GI50 [2]: 4.36 µM
- TGI [2]: 15 µM
- GI50 [3]: 11.3 µM
- TGI [3]: 22.3 µM
- GI50 [4]: 3.89 µM
- TGI [4]: 14.7 µM
- GI50 [5]: 4.85 µM
- TGI [5]: 16.2 µM
- GI50 [6]: 1.48 µM
- TGI [6]: 3.51 µM
- GI50 [7]: 1.88 µM
- TGI [7]: 4.28 µM
- GI50 [8]: 3.17 µM
- TGI [8]: 13.7 µM
- GI50 [9]: 2.09 µM
- TGI [9]: 6 µM
- GI50 [10]: 9.71 µM
- TGI [10]: 20.1 µM
- GI50 [11]: 1.82 µM
- TGI [11]: 3.91 µM
- GI50 [12]: 7.84 µM
- TGI [12]: 34.2 µM
- GI50 [13]: 2.52 µM
- TGI [13]: 9.42 µM
- GI50 [14]: 1.31 µM
- TGI [14]: 2.72 µM
- GI50 [15]: 5.18 µM
- TGI [15]: 16.9 µM
- GI50 [16]: 9.52 µM
- TGI [16]: 21 µM
- GI50 [17]: 2.88 µM
- TGI [17]: 16.2 µM
- GI50 [18]: 2.93 µM
- TGI [18]: 13.1 µM
- GI50 [19]: 1.8 µM
- TGI [19]: 4.42 µM
- GI50 [20]: 1.52 µM
- TGI [20]: 2.99 µM
- GI50 [21]: 2.67 µM
- TGI [21]: 24.1 µM
- GI50 [22]: 4.49 µM
- TGI [22]: 16.6 µM
- GI50 [23]: 8.64 µM
- TGI [23]: 32.1 µM
- GI50 [24]: 2.75 µM
- TGI [24]: 10.3 µM
- GI50 [25]: 2.3 µM
- TGI [25]: 7.5 µM
- GI50 [26]: 3.8 µM
- TGI [26]: 14.3 µM
- GI50 [27]: 2.37 µM
- TGI [27]: 8.78 µM
- GI50 [28]: 12.4 µM
- TGI [28]: 23.8 µM
- GI50 [29]: 3.24 µM
- TGI [29]: 12.4 µM
- GI50 [30]: 5.09 µM
- TGI [30]: 16.1 µM
- GI50 [31]: 10.3 µM
- TGI [31]: 20.9 µM
- GI50 [32]: 1.89 µM
- TGI [32]: 4.94 µM
- GI50 [33]: 2.86 µM
- TGI [33]: 10.2 µM
- GI50 [34]: 1.89 µM
- TGI [34]: 4.75 µM
- GI50 [35]: 5.74 µM
- TGI [35]: 33.3 µM
- GI50 [36]: 1.54 µM
- TGI [36]: 5.36 µM
- GI50 [37]: 1.58 µM
- TGI [37]: 3.3 µM
- GI50 [38]: 1.41 µM
- TGI [38]: 2.61 µM
- GI50 [39]: 2.09 µM
- TGI [39]: 8.56 µM
- GI50 [40]: 3.01 µM
- TGI [40]: 12.6 µM
- GI50 [41]: 1.38 µM
- TGI [41]: 2.54 µM
- GI50 [42]: 4.73 µM
- TGI [42]: 17 µM
- GI50 [43]: 4.21 µM
- TGI [43]: 15.5 µM
- GI50 [44]: 1.31 µM
- TGI [44]: 2.48 µM
- GI50 [45]: 2.3 µM
- TGI [45]: 7.12 µM
- GI50 [46]: 3.97 µM
- TGI [46]: 16.7 µM
- GI50 [47]: 9.6 µM
- TGI [47]: 20 µM
- GI50 [48]: 1.91 µM
- TGI [48]: 5.78 µM
- GI50 [49]: 5.44 µM
- TGI [49]: 17.2 µM
- GI50 [50]: 9.19 µM
- TGI [50]: 19.4 µM
- GI50 [51]: 9.65 µM
- TGI [51]: 20.7 µM
- GI50 [52]: 11.2 µM
- TGI [52]: 22.5 µM
- GI50 [53]: 1.29 µM
- TGI [53]: 2.94 µM
- GI50 [54]: 1.99 µM
- TGI [54]: 4.8 µM
- GI50 [55]: 2.57 µM
- TGI [55]: 7.61 µM
- GI50 [56]: 1.77 µM
- TGI [56]: 3.9 µM
- GI50 [57]: 3.94 µM
- TGI [57]: 16.4 µM
- GI50 [58]: 11.1 µM
- TGI [58]: 22 µM

SMILES: CC(=C(c1ccc(OCCCN(C)C)cc1)c1ccc(OCCCN(C)C)cc1)c1ccccc1
- GI50 [1]: 0.609 µM
- TGI [1]: 3.1 µM
- GI50 [2]: 0.515 µM
- TGI [2]: 1.76 µM
- GI50 [3]: 3.01 µM
- TGI [3]: 6.16 µM
- GI50 [4]: 0.403 µM
- TGI [4]: 0.848 µM
- GI50 [5]: 0.377 µM
- TGI [5]: 0.709 µM
- GI50 [6]: 0.36 µM
- TGI [6]: 0.733 µM
- GI50 [7]: 0.352 µM
- TGI [7]: 0.736 µM
- GI50 [8]: 0.213 µM
- TGI [8]: 0.655 µM
- GI50 [9]: 0.627 µM
- TGI [9]: 2.43 µM
- GI50 [10]: 0.343 µM
- TGI [10]: 0.64 µM
- GI50 [11]: 2.44 µM
- TGI [11]: 5.29 µM
- GI50 [12]: 0.389 µM
- TGI [12]: 1.05 µM
- GI50 [13]: 0.753 µM
- TGI [13]: 3.18 µM
- GI50 [14]: 0.37 µM
- TGI [14]: 0.847 µM
- GI50 [15]: 0.714 µM
- TGI [15]: 3.56 µM
- GI50 [16]: 0.386 µM
- TGI [16]: 0.768 µM
- GI50 [17]: 0.608 µM
- TGI [17]: 1.82 µM
- GI50 [59]: 0.804 µM
- TGI [59]: 4.09 µM
- GI50 [18]: 0.358 µM
- TGI [18]: 0.805 µM
- GI50 [19]: 0.454 µM
- TGI [19]: 1.28 µM
- GI50 [20]: 0.385 µM
- TGI [20]: 0.917 µM
- GI50 [21]: 0.621 µM
- TGI [21]: 22 µM
- GI50 [22]: 0.818 µM
- TGI [22]: 3.28 µM
- GI50 [23]: 0.448 µM
- TGI [23]: 1.78 µM
- GI50 [24]: 0.396 µM
- TGI [24]: 0.744 µM
- GI50 [25]: 3.89 µM
- TGI [25]: 8.05 µM
- GI50 [26]: 2.48 µM
- TGI [26]: 5.3 µM
- GI50 [27]: 0.979 µM
- TGI [27]: 3.76 µM
- GI50 [28]: 3.51 µM
- TGI [28]: 6.79 µM
- GI50 [29]: 1.17 µM
- TGI [29]: 4.02 µM
- GI50 [30]: 0.835 µM
- TGI [30]: 3.24 µM
- GI50 [31]: 2.43 µM
- TGI [31]: 5.28 µM
- GI50 [32]: 0.431 µM
- TGI [32]: 1.03 µM
- GI50 [33]: 1.1 µM
- TGI [33]: 3.82 µM
- GI50 [34]: 1.77 µM
- TGI [34]: 4.65 µM
- GI50 [35]: 0.438 µM
- TGI [35]: 1.13 µM
- GI50 [37]: 0.339 µM
- TGI [37]: 0.708 µM
- GI50 [38]: 0.353 µM
- TGI [38]: 0.66 µM
- GI50 [39]: 0.339 µM
- TGI [39]: 0.874 µM
- GI50 [40]: 0.354 µM
- TGI [40]: 0.746 µM
- GI50 [41]: 0.38 µM
- TGI [41]: 0.706 µM
- GI50 [42]: 2.44 µM
- TGI [42]: 5.42 µM
- GI50 [43]: 0.57 µM
- TGI [43]: 2.08 µM
- GI50 [44]: 0.461 µM
- TGI [44]: 1.02 µM
- GI50 [45]: 2.62 µM
- TGI [45]: 5.93 µM
- GI50 [46]: 0.571 µM
- TGI [46]: 1.8 µM
- GI50 [47]: 3.9 µM
- TGI [47]: 7.22 µM
- GI50 [48]: 1.16 µM
- TGI [48]: 4.11 µM
- GI50 [49]: 0.508 µM
- TGI [49]: 3.28 µM
- GI50 [50]: 0.363 µM
- TGI [50]: 0.679 µM
- GI50 [51]: 0.47 µM
- TGI [51]: 1.15 µM
- GI50 [52]: 0.36 µM
- TGI [52]: 0.699 µM
- GI50 [53]: 0.635 µM
- TGI [53]: 2.29 µM
- GI50 [54]: 0.771 µM
- TGI [54]: 2.69 µM
- GI50 [55]: 0.42 µM
- TGI [55]: 0.907 µM
- GI50 [56]: 0.473 µM
- TGI [56]: 1.04 µM
- GI50 [57]: 0.327 µM
- TGI [57]: 0.688 µM
- GI50 [58]: 0.376 µM
- TGI [58]: 0.685 µM
